According to PubChem BioAssay AID248 (DTP/NCI, 2004):
Where “and” joins values, the source holds several entries; their conditions need not be identical. Identical values can stand only once. Toxic doses and inconclusive results are not listed. No stated cut-off is given here; in the data, active means T/C of 150% or more; inactive means T/C below 125%.

System: L1210 leukemia ip in BDF1 mice, survival T/C
Assay: NCI In Vivo Anticancer Drug Screen. Data for tumor model L1210 Leukemia (intraperitoneal) in B6D2F1 (BDF1) mice
Conditions: endpoint: mean survival time, higher = longer survival
Procedure, shortened: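 Mice bearing the transplanted tumor received compound or vehicle. Survival of the treated group was divided by that of the vehicle-treated control group to give the ratio.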

[1] = dose: 100.0 mg/kg/injection, schedule: Q04DX003 (ip), vehicle: Klucel (hydroxypropylcellulose) (HPC)
[2] = dose: 100.0 mg/kg/injection, schedule: Q04DX003 (ip), vehicle: saline with Tween-80
[3] = dose: 200.0 mg/kg/injection, schedule: Q04DX003 (ip), vehicle: saline with Tween-80
[4] = dose: 400.0 mg/kg/injection, schedule: Q04DX003 (ip), vehicle: saline with Tween-80
[5] = dose: 5.0 mg/kg/injection, schedule: Q01DX001 (ip), vehicle: carboxymethylcellulose (CMC)
[6] = dose: 10.0 mg/kg/injection, schedule: Q01DX001 (ip), vehicle: carboxymethylcellulose (CMC)
[7] = dose: 20.0 mg/kg/injection, schedule: Q01DX001 (ip), vehicle: carboxymethylcellulose (CMC)
[8] = dose: 40.0 mg/kg/injection, schedule: Q01DX001 (ip), vehicle: carboxymethylcellulose (CMC)
[9] = dose: 50.0 mg/kg/injection, schedule: Q01DX001 (ip), vehicle: saline
[10] = dose: 100.0 mg/kg/injection, schedule: Q01DX001 (ip), vehicle: saline
[11] = dose: 100.0 mg/kg/injection, schedule: Q01DX009 (ip), vehicle: saline
[12] = dose: 200.0 mg/kg/injection, schedule: Q04DX003 (ip), vehicle: Klucel (hydroxypropylcellulose) (HPC)
[13] = dose: 400.0 mg/kg/injection, schedule: Q04DX003 (ip), vehicle: Klucel (hydroxypropylcellulose) (HPC)
[14] = dose: 100.0 mg/kg/injection, schedule: Q01DX009 (ip), vehicle: Klucel (hydroxypropylcellulose) (HPC)
[15] = dose: 400.0 mg/kg/injection, schedule: Q01DX009 (ip), vehicle: Klucel (hydroxypropylcellulose) (HPC)
[16] = dose: 100.0 mg/kg/injection, schedule: Q04DX002 (ip), vehicle: saline
[17] = dose: 100.0 mg/kg/injection, schedule: Q04DX003 (ip), vehicle: saline
[18] = dose: 200.0 mg/kg/injection, schedule: Q01DX009 (ip), vehicle: Klucel (hydroxypropylcellulose) (HPC)

Measured: T/C

C(=N\N=C\c1c[nH]c2ccccc12)/c1c[nH]c2ccccc12
inactive: dose: 100.0 mg/kg/injection, schedule: Q01DX009 (ip), vehicle: gum acacia 87 % of control | dose: 100.0 mg/kg/injection, schedule: Q04DX003 (ip), vehicle: gum acacia 92 % of control | dose: 200.0 mg/kg/injection, schedule: Q01DX009 (ip), vehicle: gum acacia 87 % of control | dose: 200.0 mg/kg/injection, schedule: Q04DX003 (ip), vehicle: gum acacia 89 % of control | dose: 400.0 mg/kg/injection, schedule: Q01DX009 (ip), vehicle: gum acacia 86 % of control | dose: 400.0 mg/kg/injection, schedule: Q04DX003 (ip), vehicle: gum acacia 89 % of control

CCN(CC)CC(=O)N1Cc2ccccc2Cc2ccccc2C1
inactive: dose: 25.0 mg/kg/injection, schedule: Q04DX003 (ip), vehicle: Klucel (hydroxypropylcellulose) (HPC) 92 % of control | dose: 50.0 mg/kg/injection, schedule: Q04DX003 (ip), vehicle: Klucel (hydroxypropylcellulose) (HPC) 100 % of control | [1] 107 % of control

COP(=O)(OC)C(OC(=O)C(C)(C)SC(C)=S)=C(C)C
inactive: [2] 103 % of control | [3] 96 % of control | [4] 94 % of control

CCN(CC)CCCC(C)Nc1ccnc2cc(C(F)(F)F)ccc12 (stereo not drawn)
inactive: [5] 104 % of control | [6] 106 % of control | [7] 90 % of control | [8] 104 % of control

CS(=O)(=O)OCCN(CCOS(C)(=O)=O)c1ccc(/C=N/Nc2ncnc3nc[nH]c23)cc1
inactive: dose: 12.5 mg/kg/injection, schedule: Q01DX009 (ip), vehicle: saline 124 % of control | [9] 119 % of control | dose: 89.0 mg/kg/injection, schedule: Q01DX001 (ip), vehicle: other 105 % of control | [10] 107 % of control | [11] 98 % of control | dose: 133.0 mg/kg/injection, schedule: Q01DX001 (ip), vehicle: other 110 % of control | dose: 200.0 mg/kg/injection, schedule: Q01DX001 (ip), vehicle: other 103 % of control | dose: 200.0 mg/kg/injection, schedule: Q01DX001 (ip), vehicle: saline 119 % of control | dose: 300.0 mg/kg/injection, schedule: Q01DX001 (ip), vehicle: other 114 % of control | dose: 400.0 mg/kg/injection, schedule: Q01DX001 (ip), vehicle: saline 113 % of control

CC(C)=CCCC(C)C/C=N\O (stereo not drawn)
inactive: dose: 100.0 mg/kg/injection, schedule: Q01DX009 (ip), vehicle: saline with Tween-80 101 % of control | [2] 100 % of control | dose: 200.0 mg/kg/injection, schedule: Q01DX009 (ip), vehicle: saline with Tween-80 104 % of control | [3] 103 % of control | [4] 106 % of control

CC(=O)N(C(C)=O)c1ccc2c(c1)-n1cccc1C2=O
inactive: [1] 100 % of control | [12] 101 % of control | [13] 98 % of control

CCOC(=O)c1c(NC(=O)CCC(=O)Nc2sc(C)c(C)c2C(=O)OCC)sc(C)c1C
inactive: dose: 50.0 mg/kg/injection, schedule: Q04DX003 (ip), vehicle: saline with Tween-80 88 % of control | [14] 90 % of control | [2] 98 % of control | [3] 90 % of control | [15] 88 % of control | [4] 88 % of control

O=C1C(SCCO)=C(SCCO)C(=O)c2[nH]cnc21
inactive: [5] 100 % of control | [6] 101 % of control | [7] 100 % of control | [8] 104 % of control

c1cnc(OCCN2CC2)cn1
inactive: dose: 25.0 mg/kg/injection, schedule: Q01DX001 (ip), vehicle: saline 115 % of control | [9] 96 % of control

CN1CC(C(=O)NO)C=C2c3cccc4[nH]cc(c34)CC21 (stereo not drawn)
inactive: dose: 50.0 mg/kg/injection, schedule: Q04DX003 (ip), vehicle: alcohol 104 % of control | dose: 100.0 mg/kg/injection, schedule: Q04DX003 (ip), vehicle: alcohol 101 % of control | dose: 200.0 mg/kg/injection, schedule: Q04DX003 (ip), vehicle: alcohol 103 % of control

C=CCc1cn(C2CC(O)C(CO)O2)c(=O)[nH]c1=O (stereo not drawn)
inactive: [9] 101 % of control | dose: 50.0 mg/kg/injection, schedule: Q04DX002 (ip), vehicle: saline 91 % of control | [10] 100 % of control and 101 % of control and 106 % of control | [11] 98 % of control | [16] 110 % of control | [17] 106 % of control | dose: 115.0 mg/kg/injection, schedule: Q01DX009 (ip), vehicle: saline 104 % of control | dose: 175.0 mg/kg/injection, schedule: Q01DX009 (ip), vehicle: saline 102 % of control | dose: 178.0 mg/kg/injection, schedule: Q01DX015 (ip), vehicle: saline 110 % of control | dose: 200.0 mg/kg/injection, schedule: Q01DX009 (ip), vehicle: saline 109 % of control and 112 % of control | dose: 200.0 mg/kg/injection, schedule: Q04DX002 (ip), vehicle: saline 100 % of control | dose: 200.0 mg/kg/injection, schedule: Q04DX003 (ip), vehicle: saline 95 % of control | dose: 264.0 mg/kg/injection, schedule: Q01DX009 (ip), vehicle: saline 110 % of control | dose: 267.0 mg/kg/injection, schedule: Q01DX015 (ip), vehicle: saline 107 % of control | dose: 400.0 mg/kg/injection, schedule: Q01DX009 (ip), vehicle: saline 115 % of control | dose: 400.0 mg/kg/injection, schedule: Q01DX015 (ip), vehicle: saline 119 % of control | dose: 400.0 mg/kg/injection, schedule: Q04DX003 (ip), vehicle: saline 111 % of control | dose: 600.0 mg/kg/injection, schedule: Q01DX015 (ip), vehicle: saline 121 % of control | dose: 800.0 mg/kg/injection, schedule: Q01DX001 (ip), vehicle: saline 105 % of control | dose: 1600.0 mg/kg/injection, schedule: Q01DX001 (ip), vehicle: saline 110 % of control

CCCN1CCN(c2ccccc2)CC1
inactive: dose: 25.0 mg/kg/injection, schedule: Q04DX003 (ip), vehicle: saline 90 % of control | dose: 50.0 mg/kg/injection, schedule: Q04DX003 (ip), vehicle: saline 97 % of control | [17] 92 % of control

O=C1C=C(O)c2cc(Br)ccc2C1=O.[Ag]
inactive: [16] 105 % of control

CCOC(=O)c1nnn(-c2cccnc2)c1-c1ccc([N+](=O)[O-])cc1
inactive: dose: 100.0 mg/kg/injection, schedule: Q04DX002 (ip), vehicle: Klucel (hydroxypropylcellulose) (HPC) 111 % of control | dose: 200.0 mg/kg/injection, schedule: Q04DX002 (ip), vehicle: Klucel (hydroxypropylcellulose) (HPC) 101 % of control | dose: 400.0 mg/kg/injection, schedule: Q04DX002 (ip), vehicle: Klucel (hydroxypropylcellulose) (HPC) 105 % of control

CCCCCCCCCCCCC#N
inactive: [14] 111 % of control | [1] 110 % of control | [18] 119 % of control | [12] 113 % of control | [15] 100 % of control | [13] 117 % of control

O=[N+]([O-])c1ccccc1N=Nc1c(O)[nH]c2c(Cl)cc(Cl)cc12
inactive: [10] 105 % of control

CC(=O)CC(=O)N1CCCC(C)C1 (stereo not drawn)
inactive: [14] 102 % of control | [1] 104 % of control | [18] 92 % of control | [12] 106 % of control | [15] 96 % of control | [13] 106 % of control

CC(C)CP(=O)(CC(C)C)CC(C)C
inactive: dose: 6.25 mg/kg/injection, schedule: Q04DX003 (ip), vehicle: saline with Tween-80 98 % of control

C/C(=N\N=C(/C)c1ccc(C)cc1C)c1ccc(C)cc1C
inactive: dose: 100.0 mg/kg/injection, schedule: Q04DX002 (ip), vehicle: saline with Tween-80 98 % of control | dose: 200.0 mg/kg/injection, schedule: Q04DX002 (ip), vehicle: saline with Tween-80 95 % of control | dose: 400.0 mg/kg/injection, schedule: Q04DX002 (ip), vehicle: saline with Tween-80 103 % of control
